Experimental data as given in PubChem BioAssay (NCI).
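How tested: cells in 96-well plates exposed to compound for 48 hours at five concentrations. GI50: concentration for 50% inhibition of growth. TGI denotes the concentration required for complete inhibition of growth.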

Assays:
Assay in all cases: NCI anticancer screen, dose series, 48 h
SNB-19 CNS = test system: SNB-19 CNS
TK-10 renal = test system: TK-10 renal
SF-268 CNS = test system: SF-268 CNS
HCC-2998 colon = test system: HCC-2998 colon
PC-3 prostate = test system: PC-3 prostate
HL-60(TB) leukemia = test system: HL-60(TB) leukemia
MCF7 breast = test system: MCF7 breast
UO-31 renal = test system: UO-31 renal
IGROV1 ovarian = test system: IGROV1 ovarian
HCT-116 colon = test system: HCT-116 colon
NCI-H460 lung = test system: NCI-H460 lung
NCI-H522 lung = test system: NCI-H522 lung
A549 NSCLC = test system: A549 NSCLC
U251 CNS = test system: U251 CNS
A498 renal = test system: A498 renal
OVCAR-4 ovarian = test system: OVCAR-4 ovarian
RPMI-8226 leukemia = test system: RPMI-8226 leukemia
MDA-MB-231 breast = test system: MDA-MB-231 breast
NCI-H23 lung = test system: NCI-H23 lung
CAKI-1 renal = test system: CAKI-1 renal
HS 578T breast = test system: HS 578T breast
UACC-62 melanoma = test system: UACC-62 melanoma
SNB-75 CNS = test system: SNB-75 CNS
DU-145 prostate = test system: DU-145 prostate
OVCAR-5 ovarian = test system: OVCAR-5 ovarian
HOP-92 NSCLC = test system: HOP-92 NSCLC
SN12C renal = test system: SN12C renal
COLO 205 colon = test system: COLO 205 colon

O=C(c1ccc(Oc2ccccc2)cc1Cl)c1c[nH]c2ncnc(N[C@@H]3CC[C@@H](CO)OC3)c12
GI50 (SNB-19 CNS): 1810 nM | TGI (SNB-19 CNS): 15300 nM | GI50 (TK-10 renal): 231 nM | TGI (TK-10 renal): 1670 nM | GI50 (SF-268 CNS): 1410 nM | TGI (SF-268 CNS): 16300 nM | GI50 (HCC-2998 colon): 199 nM | TGI (HCC-2998 colon): 5560 nM | GI50 (PC-3 prostate): 3160 nM | TGI (PC-3 prostate): 13500 nM | GI50 (HL-60(TB) leukemia): 200 nM | TGI (HL-60(TB) leukemia): 1970 nM | GI50 (MCF7 breast): 1470 nM | TGI (MCF7 breast): 13000 nM | GI50 (UO-31 renal): 479 nM | TGI (UO-31 renal): 5560 nM | GI50 (IGROV1 ovarian): 84.2 nM | TGI (IGROV1 ovarian): 1960 nM | GI50 (HCT-116 colon): 244 nM | TGI (HCT-116 colon): 1420 nM | GI50 (NCI-H460 lung): 2510 nM | TGI (NCI-H460 lung): 10700 nM | GI50 (NCI-H522 lung): 437 nM | TGI (NCI-H522 lung): 5090 nM | GI50 (A549 NSCLC): 724 nM | TGI (A549 NSCLC): 9920 nM | GI50 (U251 CNS): 1200 nM | TGI (U251 CNS): 14100 nM | GI50 (A498 renal): 295 nM | TGI (A498 renal): 1280 nM | GI50 (OVCAR-4 ovarian): 5020 nM | TGI (OVCAR-4 ovarian): 23000 nM | GI50 (RPMI-8226 leukemia): 1760 nM | TGI (RPMI-8226 leukemia): 9530 nM | GI50 (MDA-MB-231 breast): 320 nM | TGI (MDA-MB-231 breast): 1740 nM | GI50 (NCI-H23 lung): 703 nM | TGI (NCI-H23 lung): 13700 nM | GI50 (CAKI-1 renal): 398 nM | TGI (CAKI-1 renal): 5360 nM | GI50 (HS 578T breast): 1590 nM | TGI (HS 578T breast): 5010 nM | GI50 (UACC-62 melanoma): 20.9 nM | TGI (UACC-62 melanoma): 173 nM | GI50 (SNB-75 CNS): 1110 nM | TGI (SNB-75 CNS): 3270 nM | GI50 (DU-145 prostate): 688 nM | TGI (DU-145 prostate): 6960 nM | GI50 (OVCAR-5 ovarian): 255 nM | TGI (OVCAR-5 ovarian): 2750 nM | GI50 (HOP-92 NSCLC): 74.5 nM | TGI (HOP-92 NSCLC): 488 nM | GI50 (SN12C renal): 413 nM | TGI (SN12C renal): 11400 nM | GI50 (COLO 205 colon): 31.1 nM | TGI (COLO 205 colon): 351 nM
